In paper PMC6838324, “A suicide inhibitor of nematode trehalose-6-phosphate phosphatases” (Scientific Reports, 2019):
Values joined by “and” are separate entries in the source; they are usually repeats but may differ in a detail not shown here. Identical values can stand only once. “Also recorded” adds a separate entry of the source. Like-named read-outs stand apart in the source and are kept apart here.

Columns and labels:
Acey-TPP = Acey-TPP (Ancylostoma ceylanicum, UniProt A0A016UGW6); assay: biochemical; settings: for inhibition at 25 µM: read-out: inhibition of Acey-TPP enzyme activity
Protocol: (§1) Compounds were prepared in stocks of increasing concentration such that only 2 μL was added to reaction wells, thus keeping the DMSO concentration consistent at 4%. Enzyme in the absence of compound (with DMSO only) was run as a control and after correction for background absorbance, all test wells were scaled relative to the enzyme-only control. IC50 values were determined through fitting using either the software application SDAR[50] or DRfit[51].

Hcon-TPP1 = Hcon-TPP1 (Haemonchus contortus, UniProt A0A7I4Z3L8); assay: biochemical; settings: for inhibition at 25 µM: read-out: inhibition of Hcon-TPP1 enzyme activity; for Ki: read-out: app. Ki, Hcon-TPP1, assuming a competitive inhibition model
Protocol: as §1

Tcan-TPP = Tcan-TPP (Toxocara canis, UniProt A0A0B2V3X6); assay: biochemical; format: biochemical
Protocol: as §1

mycobacterial TPPs = test system: mycobacterial TPPs; set-up: method as in PMID 30402996; settings: cited from earlier work
[1] = target: TPPs from different nematode and bacterial organisms; settings: read-out: inhibition constants; cited from earlier work
Paer-ecTPP = Paer-ecTPP (Pseudomonas aeruginosa, UniProt B3G2E1); assay: Phosphatase end-point assay, extra-chromosomal TPP from P. aeruginosa; format: biochemical
Protocol: as §1

TPP from M. tuberculosis = TPP from M. tuberculosis (Mycobacterium tuberculosis, UniProt P9WFZ5); assay: Phosphatase end-point assay, M. tuberculosis TPP; format: biochemical; settings: 25 μM compound
Tcan-TPP-C215S = assay: Phosphatase end-point assay, C215S mutant of T. canis TPP; format: biochemical, Toxocara canis; settings: 25 μM compound
T. cati L3 larvae = assay: L3 larvae survival assay, T. cati; format: cell-based
Protocol: (§2) Control larvae were maintained in 0.4% DMSO in Minimal Essential Medium. The survival of L3s exposed to the compound was assessed at several time points after the start of the incubation using a light microscope (at 40× maginification).

T. canis L3 larvae = assay: L3 larvae survival assay, T. canis; format: cell-based
Protocol: as §2

H. contortus xL3 larvae = assay: Motility assay of exsheathed third-stage larvae (xL3) of H. contortus; format: cell-based, Haemonchus contortus; settings: 25 μM and 100 μM compound
Protocol: The effects of compound 1 were assessed in a motility assay using exsheathed third-stage larvae (xL3s) of H. contortus in 96-well microculture plates (Corning 3635; Life Sciences, USA) and the control compounds moxidectin and monepantel, following the published protocol. In brief, 1 was diluted to the final concentration of 100 µM using Luria Bertani medium (LB) supplemented with 100 IU/mL of penicillin, 100 μg mL^−1 of streptomycin and 2.5 μg mL^−1 of amphotericin (LB*), and then dispensed in triplicate into wells of a 96-well microculture plate using a multichannel pipette. Additionally, the negative controls (LB*, LB* + 0.5% solvent; six wells each), and positive controls (20 µM monepantel; Zolvix, Novartis Animal Health, Switzerland and 20 µM moxidectin; Cydectin, Virbac, France; triplicate wells) and xL3s (~300 per well) were dispensed into wells of the plate using an automated multichannel pipette. Following incubation at 38 °C and 10% CO2 for 72 h, a video recording of 5 s duration was taken of each well using a grayscale camera (Rolera Bolt, QImaging, Canada) and a motorized X-Y axis stage (BioPoint2, Ludl Electronic Products, USA). Videos were processed to calculate a motility index (MI) using an algorithm described previously.

TPP from S. pneumoniae = assay: Phosphatase end-point assay, S. pneumoniae TPP; settings: 25 μM compound
Protocol: (§3) Phosphatase end-point assays were carried out following a previously established protocol[35]. Briefly, the phosphatase activity of Acey-TPP and Tcan-TPP was assessed using 500 μM trehalose-6-phosphate and 10 μM enzyme to be tested. Reactions were carried out in a volume of 50 μL in assay buffer (100 mM NaCl, 20 mM TRIS, pH 7.5). Individual compounds were added to the reaction mixtures at a final concentration of 25 μM, followed by incubation for 5 min before reactions were initiated by the addition of substrate (final DMSO concentration of 4%).
(§4) Reactions were allowed to proceed for 5 min before quenching with 100 μL of BIOMOL® Green reagent (Enzo Life Sciences, New York, NY, USA). Absorbance at 620 nm was determined using a BioTek® Synergy 2 plate reader (BioTek, Winooski, VT, USA) after an incubation period of 15 min for colour development. All reactions were set up in triplicate in 96-well plates (Corning, Sigma-Aldrich, NSW, Australia) at 25 °C and control experiments in the absence of enzyme were used to correct for background absorbance.
(§5) Raw data were exported as spreadsheets from the plate reader and assembled for statistical analysis with R[48] using the software jBar[49] for calculation of means and standard errors, background correction, normalisation and significance evaluation by a two-sided t-test.

TPP from S. maltophilia = assay: Phosphatase end-point assay, S. maltophilia TPP; settings: 25 μM compound
Protocol: as §3, §4, §5

[2] = 25 μM compound, compared with uninhibited enzyme
[3] = listed as N-(phenylthio)phthalimide

Sequence of Paer-ecTPP (B3G2E1 entry or part of it): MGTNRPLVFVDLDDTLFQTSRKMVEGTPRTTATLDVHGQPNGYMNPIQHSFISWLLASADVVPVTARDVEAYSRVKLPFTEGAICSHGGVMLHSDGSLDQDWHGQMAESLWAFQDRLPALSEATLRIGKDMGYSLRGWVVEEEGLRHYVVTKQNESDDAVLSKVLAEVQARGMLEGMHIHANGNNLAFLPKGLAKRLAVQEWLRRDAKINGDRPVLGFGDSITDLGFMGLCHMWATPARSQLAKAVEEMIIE
Sequence of Acey-TPP (A0A016UGW6 entry or part of it): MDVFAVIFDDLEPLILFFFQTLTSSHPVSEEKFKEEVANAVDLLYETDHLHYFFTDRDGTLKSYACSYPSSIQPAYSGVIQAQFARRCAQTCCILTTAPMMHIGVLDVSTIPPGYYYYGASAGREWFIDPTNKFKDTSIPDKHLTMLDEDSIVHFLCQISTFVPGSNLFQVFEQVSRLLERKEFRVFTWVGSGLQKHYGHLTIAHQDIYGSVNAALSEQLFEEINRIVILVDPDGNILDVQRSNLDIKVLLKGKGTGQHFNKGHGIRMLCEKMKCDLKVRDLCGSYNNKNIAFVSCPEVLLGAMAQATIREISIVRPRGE
Sequence of Hcon-TPP1 (A0A7I4Z3L8 entry or part of it): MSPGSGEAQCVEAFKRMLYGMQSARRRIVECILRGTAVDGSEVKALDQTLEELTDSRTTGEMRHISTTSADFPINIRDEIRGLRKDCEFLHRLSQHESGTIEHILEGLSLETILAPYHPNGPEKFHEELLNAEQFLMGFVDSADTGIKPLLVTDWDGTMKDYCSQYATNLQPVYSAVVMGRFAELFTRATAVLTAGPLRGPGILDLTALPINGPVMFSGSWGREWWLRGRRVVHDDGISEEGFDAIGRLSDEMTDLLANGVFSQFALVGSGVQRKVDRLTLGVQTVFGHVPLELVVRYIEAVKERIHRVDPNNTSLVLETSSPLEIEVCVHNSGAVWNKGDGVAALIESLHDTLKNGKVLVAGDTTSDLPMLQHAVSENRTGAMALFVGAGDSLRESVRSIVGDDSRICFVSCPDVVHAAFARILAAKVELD
Sequence of Tcan-TPP (A0A0B2V3X6 entry or part of it): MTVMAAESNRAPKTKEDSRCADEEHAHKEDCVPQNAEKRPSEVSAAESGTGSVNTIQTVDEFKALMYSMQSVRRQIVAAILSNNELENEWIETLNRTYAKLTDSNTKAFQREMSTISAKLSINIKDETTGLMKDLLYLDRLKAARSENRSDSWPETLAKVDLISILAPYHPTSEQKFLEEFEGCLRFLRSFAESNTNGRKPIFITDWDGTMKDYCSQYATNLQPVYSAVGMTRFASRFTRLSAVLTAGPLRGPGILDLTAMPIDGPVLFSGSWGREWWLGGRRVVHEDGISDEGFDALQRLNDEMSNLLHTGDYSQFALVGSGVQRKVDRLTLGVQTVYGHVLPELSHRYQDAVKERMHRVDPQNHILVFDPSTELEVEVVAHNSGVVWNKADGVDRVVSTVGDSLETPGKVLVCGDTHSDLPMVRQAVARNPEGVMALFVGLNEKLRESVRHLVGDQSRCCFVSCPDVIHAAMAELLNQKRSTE
Sequence of TPP from M. tuberculosis (P9WFZ5 whole entry, looked up): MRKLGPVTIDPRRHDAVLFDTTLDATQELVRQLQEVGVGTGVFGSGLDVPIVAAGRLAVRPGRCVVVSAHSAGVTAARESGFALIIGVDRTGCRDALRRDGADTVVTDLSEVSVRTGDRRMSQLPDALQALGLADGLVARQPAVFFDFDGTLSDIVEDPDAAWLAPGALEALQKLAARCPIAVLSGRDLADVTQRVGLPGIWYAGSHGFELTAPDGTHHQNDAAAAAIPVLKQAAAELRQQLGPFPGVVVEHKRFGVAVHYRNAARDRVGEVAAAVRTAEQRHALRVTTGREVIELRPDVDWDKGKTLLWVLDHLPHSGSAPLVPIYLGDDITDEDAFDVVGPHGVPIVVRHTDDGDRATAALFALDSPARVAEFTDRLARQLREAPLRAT

**Q.** For `O=C1NC(=O)c2ccccc21` [Compound 3, phthalimide], which inhibition at 25 µM (Acey-TPP) is on record?
**A.** Its inhibition at 25 µM is ≤ 20%.

**Q.** What about the inhibition at 25 µM (Hcon-TPP1) of the same molecule?
**A.** Its inhibition at 25 µM is ≤ 20%.

**Q.** What about the inhibition at 25 µM (Tcan-TPP; read-out: inhibition of Tcan-TPP enzyme activity) of the same molecule?
**A.** Its inhibition at 25 µM is ≤ 20%.

**Q.** For `OCC1=C[C@@H](N[C@H]2C[C@H](CO)[C@@H](O[C@H]3O[C@@H](CO)[C@H](O)[C@@H](O)[C@@H]3O)[C@H](O)[C@H]2O)[C@H](O)[C@@H](O)[C@@H]1O` [validamycin A], which IC50 (mycobacterial TPPs) is on record?
**A.** The IC50 was 12600 to 15000 µM.

**Q.** For `O=S(=O)(O)OC[C@H]1O[C@H](O[C@H]2O[C@H](CO)[C@@H](O)[C@H](O)[C@H]2O)[C@H](O)[C@@H](O)[C@@H]1O` [trehalose-6-sulphate], which Ki [1] is on record?
**A.** Its Ki is 50 to 300 µM.

**Q.** What does the source list for `O=C1c2ccccc2C(=O)N1Sc1ccccc1` [Compound 1, N-(phenylthio)phthalimide]?
**A.** inhibitory effect on phosphatase activity under reducing conditions (Acey-TPP; 25 μM compound, 1 mM DTT, Acey-TPP): entirely suppressed; inhibition of Acey-TPP enzyme activity (Acey-TPP; [2]): complete annihilation; inhibition at 25 µM (Acey-TPP): > 50%; concentration at which enzymatic activity is almost entirely suppressed (Hcon-TPP1; H. contortus TPP, dose-response): > 25 µM; IC50 (Hcon-TPP1; Hcon-TPP1, phosphatase end-point assay): 6.6 ± 0.36 µM; Ki (Hcon-TPP1): 6 µM; Ki (Hcon-TPP1; [3]): 5.8 µM; inhibition at 25 µM (Hcon-TPP1): 82%; IC50 (Tcan-TPP): 0.89 ± 0.037 µM; inhibitory effect on phosphatase activity under reducing conditions (Tcan-TPP; 25 μM compound, 1 mM DTT, Tcan-TPP): entirely suppressed; inhibition of Tcan-TPP enzyme activity (Tcan-TPP; [2]): complete annihilation; Ki (Tcan-TPP; app. Ki, Tcan-TPP, assuming a competitive inhibition model): 0.6 µM and 0.56 µM; inhibition of phosphatase activity (Paer-ecTPP; 25 μM compound, P. aeruginosa extra-chromosomal TPP): susceptible to inhibition; Ki (Paer-ecTPP; Paer-ecTPP, assuming a competitive inhibition model, read-out: app. Ki): 2.1 µM; IC50 (Paer-ecTPP; Paer-ecTPP, phosphatase end-point assay): 2.1 ± 0.19 µM; inhibition of phosphatase activity (TPP from M. tuberculosis): only the extra-chromosomal TPP from P. aeruginosa was susceptible to inhibition; effect on enzymatic activity of mutant Tcan-TPP-C215S (Tcan-TPP-C215S): did not affect the enzymatic activity; lethality (T. cati L3 larvae; T. cati larvae, 100 μM, after 3 h): > 80%; LC50 (T. cati L3 larvae; Toxocara cati, 24 h, read-out: half maximum lethal concentration (IC50 in survival assay)): 9.3 µM; lethality (T. canis L3 larvae; T. canis larvae, 100 μM, after 24 h): > 80%; LC50 (T. canis L3 larvae; Toxocara canis, 24 h, read-out: half maximum lethal concentration): 61 µM; motility of exsheathed H. contortus larvae (xL3) (H. contortus xL3 larvae): only weakly impaired; motility of exsheathed H. contortus larvae (xL3) (H. contortus xL3 larvae; [3]): no bioactivity was observed; also recorded: no significant effects; inhibition of phosphatase activity (TPP from S. pneumoniae): only the extra-chromosomal TPP from P. aeruginosa was susceptible to inhibition; inhibition of phosphatase activity (TPP from S. maltophilia): only the extra-chromosomal TPP from P. aeruginosa was susceptible to inhibition
